Our source for the MIC values is patent publication US3957987A, “Compositions containing a carbonamidoquinoxaline-di-N-oxide and method of using same” (Bayer Aktiengesellschaft, priority 1971, dated 1976).

Holding throughout (format): cell-based
One assay has as its system Clostridium botulinum. Kind of assay: microbe, parasite or virus in culture. Particulars: read-out: minimum inhibitory concentration.
The test system of another assay is Mycoplasma gran. Kind of assay: Minimum inhibitory concentration, Mycoplasma gran.
A further assay relates to Mycoplasma S6. Nature of the assay: Minimum inhibitory concentration, Mycoplasma S6.
For assay [1], the system named is Bordetella bronchiseptica. Kind of assay: Minimum inhibitory concentration, Bordetella bronchiseptica.
The next assay concerns Escherichia coli C 165. Nature of the assay: Minimum inhibitory concentration in vitro, Escherichia coli C 165. As to conditions: C165. The text has this:
(§1) As representative of the spectrum of antimicrobial activity for these compounds, the following representative minimum inhibitory concentrations shown on Tables A, B and C can be noted:
(§2) Minimum Inhibitory Concentrations In Vitro, in μg/ml of Medium

Assay [2] concerns Pasteurella multocida ATCC. Kind of assay: Minimum inhibitory concentration, Pasteurella multocida ATCC.
In a further assay the test system is Klebsiella 8085. Kind of assay: Minimum inhibitory concentration in vitro, Klebsiella 8085.
Description: as §1, §2

The next assay concerns Streptococcus pyogenes. Kind of assay: Minimum inhibitory concentration in vitro, Streptococcus pyogenes.
Description: as §1, §2

For assay [3], the system named is Staphylococcus aureus 133. Nature of the assay: Minimum inhibitory concentration in vitro, Staphylococcus aureus 133.
Description: as §1, §2

In the next assay the test system is Aeromonas liquefaciens. Kind of assay: Minimum inhibitory concentration, Aeromonas liquefaciens. Particulars: Aeromonas hydrophila.
For a further assay, the system named is Mycoplasma MS. Kind of assay: Minimum inhibitory concentration, Mycoplasma MS. The text has this:
(§3) As representative of the spectrum of antimicrobial activity for these compounds, the following representative minimum inhibitory concentrations shown on Tables A, B and C can be noted: […]

The next assay concerns Clostridium tetani. Nature of the assay: microbe, parasite or virus in culture. As to conditions: read-out: minimum inhibitory concentration.
Assay [4] deals with Alcaligenes faecalis ATCC. Kind of assay: Minimum inhibitory concentration, Alcaligenes faecalis ATCC.
The next assay relates to Mycobacterium species. Nature of the assay: Minimum inhibitory concentration, Mycobacterium species.
Description: as §3

In a further assay the test system is Klebsiella 63. Kind of assay: Minimum inhibitory concentration in vitro, Klebsiella 63.
Description: as §1, §2

A further assay deals with Proteus vulgaris. Nature of the assay: Minimum inhibitory concentration in vitro, Proteus vulgaris specieis.
Description: as §1, §2

The next assay relates to Escherichia coli A 261. Kind of assay: Minimum inhibitory concentration in vitro, Escherichia coli A 261. Particulars: A261.
Description: as §1, §2

≈ marks a conversion by molar mass, not a printed value.

With `COC(=O)NN=Cc1c(C(=O)N2CCCC2)[n+]([O-])c2ccccc2[n+]1[O-]` [Example 12], the MIC in the assay with Clostridium botulinum was 10 µg/mL (≈ 27.8 µM); in the assay on Mycoplasma gran, 10 µg/mL (≈ 27.8 µM); in the assay with Mycoplasma S6, 10 µg/mL (≈ 27.8 µM); in [1], 100 µg/mL (≈ 278 µM); against Escherichia coli C 165, 100 µg/mL (≈ 278 µM); in assay [2] it was 1 µg/mL (≈ 2.78 µM). Moreover, the MIC worked out at 100 µg/mL (≈ 278 µM) against Klebsiella 8085; 100 µg/mL (≈ 278 µM) against Streptococcus pyogenes; 10 µg/mL (≈ 27.8 µM) in [3]; 100 µg/mL (≈ 278 µM) in the assay with Aeromonas liquefaciens; 100 µg/mL (≈ 278 µM) in the assay with Mycoplasma MS; 10 µg/mL (≈ 27.8 µM) in the assay with Clostridium tetani. The MIC (in assay [4]; in the assay on Mycobacterium species; against Klebsiella 63) was 100 µg/mL (≈ 278 µM) throughout.

Take `CNC(=O)c1c(C=NNC(=O)OC)[n+]([O-])c2ccccc2[n+]1[O-]` [Example 13]: the MIC (against Proteus vulgaris; in the assay on Clostridium botulinum; against Mycoplasma gran; in the assay with Mycoplasma S6; in assay [1]; in the assay on Escherichia coli C 165) was 100 µg/mL (≈ 313 µM) throughout. Also, the MIC in assay [2] was 100 µg/mL (≈ 313 µM); against Klebsiella 8085, 10 µg/mL (≈ 31.3 µM); against Streptococcus pyogenes, 100 µg/mL (≈ 313 µM); in assay [3], 100 µg/mL (≈ 313 µM); against Aeromonas liquefaciens, 100 µg/mL (≈ 313 µM); with Escherichia coli A 261, 100 µg/mL (≈ 313 µM). Further, the MIC (in the assay with Clostridium tetani; in assay [4]; against Mycobacterium species; in the assay with Klebsiella 63) was 100 µg/mL (≈ 313 µM) throughout.

As to `CNC(=O)c1c(C=NO)[n+]([O-])c2ccccc2[n+]1[O-]` [Example 19], the MIC (with Proteus vulgaris; in the assay with Clostridium botulinum; in the assay on Mycoplasma gran; in the assay with Mycoplasma S6; in assay [1]; against Escherichia coli C 165) was 100 µg/mL (≈ 381 µM) throughout. Also, the MIC (in [2]; against Klebsiella 8085; against Streptococcus pyogenes; in assay [3]; against Aeromonas liquefaciens; in the assay on Escherichia coli A 261) was 100 µg/mL (≈ 381 µM) throughout. The MIC with Clostridium tetani is 100 µg/mL (≈ 381 µM); in [4], 100 µg/mL (≈ 381 µM); in the assay on Mycobacterium species it was 40 to 100 µg/mL (≈ 153 to 381 µM); in the assay with Klebsiella 63, 100 µg/mL (≈ 381 µM).

Regarding `CCNC(=O)c1c(C=NNC(=O)OC)[n+]([O-])c2ccccc2[n+]1[O-]` [Example 18], the MIC (in the assay on Proteus vulgaris; in the assay on Clostridium botulinum; against Mycoplasma gran; against Mycoplasma S6; in assay [1]; in the assay with Escherichia coli C 165) was 100 µg/mL (≈ 300 µM) in each case. In addition, the MIC in assay [2] is 100 µg/mL (≈ 300 µM); against Klebsiella 8085, 10 µg/mL (≈ 30 µM); against Streptococcus pyogenes, 100 µg/mL (≈ 300 µM); in assay [3] it was 100 µg/mL (≈ 300 µM); against Aeromonas liquefaciens it was 100 µg/mL (≈ 300 µM); with Escherichia coli A 261, 100 µg/mL (≈ 300 µM). The MIC (with Clostridium tetani; in assay [4]; with Mycobacterium species; with Klebsiella 63) was 100 µg/mL (≈ 300 µM) throughout.

Regarding `COC(=O)NN=Cc1c(C(=O)NC(C)C)[n+]([O-])c2ccccc2[n+]1[O-]` [Example 17], the MIC (in the assay with Clostridium botulinum; with Mycoplasma gran; against Mycoplasma S6; in [1]; against Escherichia coli C 165; in assay [2]) was 100 µg/mL (≈ 288 µM) in each case. Moreover, the MIC against Klebsiella 8085 turned out to be 10 µg/mL (≈ 28.8 µM); in the assay on Streptococcus pyogenes, 100 µg/mL (≈ 288 µM); in assay [3] it was 100 µg/mL (≈ 288 µM); in the assay on Aeromonas liquefaciens it was 100 µg/mL (≈ 288 µM); against Escherichia coli A 261, 100 µg/mL (≈ 288 µM); in the assay on Clostridium tetani, 100 µg/mL (≈ 288 µM). The MIC (in [4]; against Mycobacterium species; against Klebsiella 63) was 100 µg/mL (≈ 288 µM) in each case.

On to `CCCNC(=O)c1c(C=NNC(=O)OC)[n+]([O-])c2ccccc2[n+]1[O-]` [Example 15], for which the MIC (in the assay with Clostridium botulinum; against Mycoplasma gran; against Mycoplasma S6; in [1]; in the assay on Escherichia coli C 165; in [2]) was 100 µg/mL (≈ 288 µM) in each case. In addition, the MIC came out at 100 µg/mL (≈ 288 µM) in the assay with Klebsiella 8085; 10 µg/mL (≈ 28.8 µM) against Streptococcus pyogenes; 100 µg/mL (≈ 288 µM) in [3]; 100 µg/mL (≈ 288 µM) with Aeromonas liquefaciens; 100 µg/mL (≈ 288 µM) against Escherichia coli A 261; 100 µg/mL (≈ 288 µM) in the assay on Clostridium tetani. Besides, the MIC (in assay [4]; against Mycobacterium species; with Klebsiella 63) was 100 µg/mL (≈ 288 µM) in each case.
